{"source": "paper PMC2365101", "about": "“Anti-Inflammatory Activity of (Polyphenolic)-Sulfonates and Their Sodium Salts in Rodents” (Metal-Based Drugs, 1998)", "key": {"[1]": {"target": "T1, IL-2 high affinity receptor on HUT78 T lymphoma cell membrane (Homo sapiens, UniProt P01589+P14784)", "T1 construct": "host or cells: HuT78 T lymphoma cells", "T1 sequence (P01589 22-272)": "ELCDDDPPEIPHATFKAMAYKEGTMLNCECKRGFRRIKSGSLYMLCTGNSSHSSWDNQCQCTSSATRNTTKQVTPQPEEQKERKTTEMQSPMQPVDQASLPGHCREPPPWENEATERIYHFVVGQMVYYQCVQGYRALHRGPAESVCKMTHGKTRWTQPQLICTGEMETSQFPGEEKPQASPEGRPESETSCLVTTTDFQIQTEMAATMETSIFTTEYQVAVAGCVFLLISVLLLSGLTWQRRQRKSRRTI", "T1 sequence (P14784 27-551)": "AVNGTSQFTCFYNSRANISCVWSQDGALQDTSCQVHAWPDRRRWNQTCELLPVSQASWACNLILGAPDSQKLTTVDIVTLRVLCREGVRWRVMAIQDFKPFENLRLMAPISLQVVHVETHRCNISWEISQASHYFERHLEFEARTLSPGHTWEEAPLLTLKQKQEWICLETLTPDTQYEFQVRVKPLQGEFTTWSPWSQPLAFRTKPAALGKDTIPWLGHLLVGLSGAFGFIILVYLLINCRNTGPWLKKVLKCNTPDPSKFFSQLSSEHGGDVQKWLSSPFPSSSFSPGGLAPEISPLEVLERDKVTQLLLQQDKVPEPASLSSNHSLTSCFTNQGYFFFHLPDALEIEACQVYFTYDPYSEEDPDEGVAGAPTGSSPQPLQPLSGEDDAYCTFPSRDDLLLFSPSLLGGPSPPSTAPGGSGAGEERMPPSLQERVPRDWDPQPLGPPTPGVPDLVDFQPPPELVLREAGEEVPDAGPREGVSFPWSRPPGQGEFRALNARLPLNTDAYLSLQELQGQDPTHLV", "assay": "125I-IL-2 high affinity binding to HuT78 T lymphoma cells", "conditions": "for 125I-IL-2 binding, Percent of Control: N=6"}, "[2]": {"test_system": "IL-8 high affinity receptor on chinese hamster ovarian carcinoma K-1 cells", "assay": "125I-IL-8 high affinity binding to chinese hamster ovarian carcinoma K-1 cells", "conditions": "for 125I-IL-8 binding, Percent of Control: N=6"}, "[3]": {"test_system": "CF1 male mice, LPS Salmonella abortus equi induced death", "assay": "Protection against septic shock (LPS induced endotoxic shock)", "type": "in vivo", "conditions": "for Percent Survival at 52 hr: LPS 10 mg/kg, CF1 male mice, N=6", "source_text": "Few reports in the literature indicate interaction at these receptor sites other than by peptides or antibodies. […] Blocking these receptors is desirable because the entire inflammation cascade of events is triggered by the early release of TNFa and IL-1. […] Radioisotopes were obtained from New England Nuclear [Dupont, Boston, MA] and substrates and co- factors were obtained from Sigma Chemical Co. [St. Louis, MO]. […] Cell lines were obtained from American Type Culture Collection [Rockville, MD]. In Vivo Tests Anti-inflammatory screen in mice: Male CF male mice weighing 28-32g obtained from Jackson Lab. [Bar Harbor, […]] were used to screen agents at 8 or 16 mg/kg intraperitoneal [I.P.] x 2 administered 3 hr and 30 min prior to administering the irritant, according to Winter's protocol. Evaluation of the induced edema was made by injecting 2% carrageenan in 0.9% saline into the plantar region of the foot. The opposite foot injected with 0.9% isotonic saline was used as a base line. […] Salmonella abortus equi [Lot # 69F4003] […] Drugs from 2 to 16 mg/kg, I.P. were administered 2 hr prior and 2 hr post-injection of the LPS and then subsequently for every 24 hr for the length ofthe animals' lives. Deaths were recorded every 12 hr and continued for 96 hr. […] In vitro TNFa andIL-1 Measurements and Cellular Regulation IC-21 mouse macrophages were maintained in RPMI-1640 + 10% FCS + P/S. After the cells had grown to confluency, E. coli LPS at 10 Ixg/ml was added to the medium. Agents were incubated at 12.5 to 100 µM final concentration for 18 hr. The medium (100 btl) was collected for TNFCt determinations. Interleukin-1 [IL-1] release was determined using P388D1 cells which were maintained in RPMI-1640 + 10% FCS + P/S. The L929 bioassay was used to quantitate the TNF and the IL-1 levels. The L929 mouse fibroblasts were grown in DMEM + 10% FCS + P/S to confluency in 96 well plates and incubated with 100 tl ofmedium from […] or P388D cells after 18 hr. The cells were stained with 0.2% crystal violet in 20% MeOH and read at 580 nm using a Molecular Devices scanner (SOFT-max program). High Affinity Binding to Receptors on L929-106 Cells Two laCi of 125I-TNFct (human recombinant, 30 mCi/tg New England Nuclear) or 125I-IL-1 (70-120[.t Ci/lxg,New England Nuclear) was added to confluency L929 cells for 90 min or 5 hr, respectively with 25, 50 and 100 tM of the test compounds 12]. The cells were washed repeatedly with isotonic saline, pH.7.2 and aliquots counted. Prostaglandin cylcooxygenase activity Mouse J774AI macrophages maintained in Dulbecco's modified Eagle's medium + 15% FCS + P/S. Cells (5 x 106) were incubated with agents (5 to 100 ].tM final concentration) and 3H-arachidonic acid (100 Ci/mol) for 60 min at 37C in a CO2 incubator. The reaction was terminated with 2N HCI, the mixture extracted 2 X with ether, and the organic layer evaporated."}, "[4]": {"test_system": "RPMI 1788 leukocytes adhesion to L929 fibroblasts", "assay": "Adhesion of human leukocytes RPMI-1788 to confluent L929 fibroblasts", "type": "cell-based", "conditions": "N=6"}, "[5]": {"test_system": "J774 A1 mouse macrophages adhesion to L929 fibroblasts", "assay": "Adhesion of J-774 A1 mouse macrophages to confluent L929 fibroblasts", "type": "cell-based", "conditions": "for Adhesion, Percent of Control: N=6"}, "[6]": {"target": "J774-A1 macrophage elastase", "assay": "Elastase activity in J774-A1 macrophages", "type": "biochemical, mouse", "conditions": "120 min"}}}
{"substance": "Pentosan sulfate [Pentosan polysulfate, reference compound]", "values": [{"measurement": "125I-IL-2 binding, Percent of Control", "setting": "[1]; 5 μM, 2 Hours", "value": "362 + 9% of Control"}, {"measurement": "125I-IL-2 binding, Percent of Control", "setting": "[1]; 5 μM, 5 Hours", "value": "148 + 5% of Control"}, {"measurement": "125I-IL-2 binding, Percent of Control", "setting": "[1]; 12.5 μM, 2 Hours", "value": "188 + 5% of Control"}, {"measurement": "125I-IL-2 binding, Percent of Control", "setting": "[1]; 12.5 μM, 5 Hours", "value": "89 + 6% of Control"}, {"measurement": "125I-IL-2 binding, Percent of Control", "setting": "[1]; 25 μM, 2 Hours", "value": "123 + 7% of Control"}, {"measurement": "125I-IL-2 binding, Percent of Control", "setting": "[1]; 25 μM, 5 Hours", "value": "81 + 6% of Control"}, {"measurement": "125I-IL-2 binding, Percent of Control", "setting": "[1]; 50 μM, 2 Hours", "value": "104 + 6% of Control"}, {"measurement": "125I-IL-2 binding, Percent of Control", "setting": "[1]; 50 μM, 5 Hours", "value": "55 + 4% of Control"}, {"measurement": "reduction of IL-2 high affinity binding", "setting": "[1]; 50 μM, 5 hr", "value": 45, "unit": "%"}, {"measurement": "125I-IL-8 binding, Percent of Control", "setting": "[2]; 50 μM, 5 Hours", "value": "79 + 6% of Control"}, {"measurement": "125I-IL-8 binding, Percent of Control", "setting": "[2]; 50 μM, 24 Hours", "value": "51 + 6% of Control"}, {"measurement": "reduction of IL-8 high affinity binding", "setting": "[2]; 50 μM, 5 hr", "value": "21-23%"}, {"measurement": "125I-IL-8 binding, Percent of Control", "setting": "[2]; 100 μM, 24 Hours", "value": "47 + 8% of Control"}, {"measurement": "reduction of IL-8 high affinity binding", "setting": "[2]; 24 hr", "value": "greater than 40%"}, {"measurement": "Percent Survival at 52 hr", "setting": "[3]; 8 mg/Kg I.P.", "value": 67, "unit": "%"}, {"measurement": "Percent Survival at 52 hr", "setting": "[3]; 16 mg/Kg I.P.", "value": 83, "unit": "%"}, {"measurement": "protection from LPS induced death", "setting": "[3]; 16 mg/kg", "value": 83, "unit": "%"}, {"measurement": "Adhesion, Percent of Control", "setting": "[4]; 12.5 μM, 2 Hours", "value": "83+5% of Control"}, {"measurement": "Adhesion, Percent of Control", "setting": "[4]; 12.5 μM, 5 Hours", "value": "82+5% of Control"}, {"measurement": "Adhesion, Percent of Control", "setting": "[4]; 25 μM, 2 Hours", "value": "116+6% of Control"}, {"measurement": "Adhesion, Percent of Control", "setting": "[4]; 25 μM, 5 Hours", "value": "82+6% of Control"}, {"measurement": "Adhesion, Percent of Control", "setting": "[4]; 50 μM, 2 Hours", "value": "147+6% of Control"}, {"measurement": "Adhesion, Percent of Control", "setting": "[5]; 5 μM, 2 Hours", "value": "75+7% of Control"}, {"measurement": "Adhesion, Percent of Control", "setting": "[5]; 5 μM, 5 Hours", "value": "103+5% of Control"}, {"measurement": "Adhesion, Percent of Control", "setting": "[5]; 5 μM, 90 min", "value": "329 + 12% of Control"}, {"measurement": "Adhesion, Percent of Control", "setting": "[5]; 12.5 μM, 2 Hours", "value": "53 + 6% of Control"}, {"measurement": "Adhesion, Percent of Control", "setting": "[5]; 12.5 μM, 5 Hours", "value": "108+7% of Control"}, {"measurement": "Adhesion, Percent of Control", "setting": "[5]; 12.5 μM, 90 min", "value": "363 + 16% of Control"}, {"measurement": "reduction of J774A1 macrophage adhesion", "setting": "[5]; 12.5 μM, 2 hr", "value": 47, "unit": "%"}, {"measurement": "Adhesion, Percent of Control", "setting": "[5]; 25 μM, 2 Hours", "value": "66+ 5% of Control"}, {"measurement": "Adhesion, Percent of Control", "setting": "[5]; 25 μM, 5 Hours", "value": "169+6% of Control"}, {"measurement": "Adhesion, Percent of Control", "setting": "[5]; 25 μM, 90 min", "value": "260 + 9% of Control"}, {"measurement": "Adhesion, Percent of Control", "setting": "[5]; 50 μM, 2 Hours", "value": "110+6% of Control"}, {"measurement": "Adhesion, Percent of Control", "setting": "[5]; 50 μM, 5 Hours", "value": "187 + 7% of Control"}, {"measurement": "Adhesion, Percent of Control", "setting": "[5]; 50 μM, 90 min", "value": "176 +6% of Control"}, {"measurement": "IC50 Elastase J774-A1", "setting": "[6]", "value": "Increased"}]}
